Values quoted from earlier work in article PMC4130638, “Structure of a Stapled Peptide Antagonist Bound to Nutlin-Resistant Mdm2” (PLoS ONE, 2014).
“Also recorded” adds a separate entry of the source.

How the values were obtained:
[1] = system: Mdm2 M62A (N-terminal domain); conditions: M62A mutation in N-terminal domain of Mdm2
[2] = system: Mdm2 Q24R (N-terminal domain); conditions: Q24R mutation in N-terminal domain of Mdm2

Substance: Nutlin-3a
- binding affinity for Mdm2 M62A [1]: precludes binding of Nutlin, but not p53; also recorded: selectively reducing affinity for Nutlin but not p53; also recorded: significantly impairing binding
- binding affinity for Mdm2 Q24R [2]: selectively reducing affinity for Nutlin but not p53
